Patent US20250177425A1, “SAIKOSAPONIN C AS COMPOSITION FOR TREATING OR PREVENTING AGE-RELATED VASCULAR DISEASES INCLUDING ARTERIOSCLEROSIS” (AGINGTARGET, INC., priority 2022, published 2025)

Assays:
[1] = system: HPAEC; experiment: MTT assay, high glucose-induced growth inhibition; format: cell-based, human; settings: 5 μM and 20 μM pretreatment 2 hours, 33 mM high glucose 72 hours, dose-dependent
Method: (§1) A high-fat diet test system at the cellular level was established using 33 mM high glucose (HG), which is 6 times the standard glucose concentration of 5.5 mM in the vascular endothelial cell culture medium.
(§2) Specifically, two types of endothelial cells, namely, human umbilical vein endothelial cells (HUVECs) and human pulmonary artery endothelial cells (HPAECs), were pretreated with 5 μM and 20 μM of Saikosaponin C (SSc) for 2 hours, and then treated with 33 mM of high glucose for 72 hours. Then, cell growth was analyzed using the MTT assay, which measures the mitochondrial metabolic capacity of living cells.
(§3) Endothelial cell growth was assessed by measuring the absorbance of MTT formazan at a wavelength of 590 nm.

[2] = system: HUVEC; experiment: MTT assay, high glucose-induced growth inhibition; format: cell-based, human; settings: 5 μM and 20 μM pretreatment 2 hours, 33 mM high glucose 72 hours, dose-dependent
Method: as §1, §2, §3

[3] = system: HPAEC; experiment: Cell cycle analysis by flow cytometry (PI), high glucose-induced G1 phase arrest; format: cell-based, human; settings: 5 μM and 20 μM pretreatment 2 hours, 33 mM high glucose 48 hours, dose-dependent
Method: (§4) Similar to Experimental Example 1, a high-fat diet evaluation system at the cellular level was established.
(§5) Specifically, two types of vascular endothelial cells, namely, HUVEC and HPAEC cells, were pretreated with Saikosaponin C at concentrations of 5 μM and 20 μM for 2 hours, then treated with high glucose (33 mM) for 48 hours, and then immobilized with cold 70% ethanol. The DNA of the immobilized vascular endothelial cells was stained with PI (propidium iodide, 50 μg/ml) solution and the cell cycle was analyzed using a flow cytometer. In addition, the expression of cell cycle regulatory proteins such as p21, p27, and p16 was analyzed after treatment with high glucose (33 mM) for 36 hours.
(§6) Since cellular senescence is closely related to the arrest in the G1 phase of the cell cycle, the cell cycle was evaluated using flow cytometry (FIG. 4A and FIG. 4B). In addition, the expression of p21, p27, and p16 proteins, which are G1 phase growth arrest-inducing proteins, was measured through Western blotting (FIG. 4C, FIG. 4D).

[4] = system: HUVEC; experiment: as above; format: cell-based, human; settings: 5 μM and 20 μM pretreatment 2 hours, 33 mM high glucose 48 hours, dose-dependent
Method: as §4, §5, §6

[5] = system: p21, p27, and p16 in HPAEC; experiment: Western blotting of G1 phase growth arrest-inducing proteins; format: cell-based, human; settings: 5 μM and 20 μM pretreatment 2 hours, 33 mM high glucose 36 hours, dose-dependent
Method: as §4, §5, §6

[6] = system: p21, p27, and p16 in HUVEC; experiment: as above; format: cell-based, human; settings: 5 μM and 20 μM pretreatment 2 hours, 33 mM high glucose 36 hours, dose-dependent
Method: as §4, §5, §6

[7] = system: eNOS / nitric oxide in HPAEC; experiment: NOS-NO signaling: nitric oxide level, eNOS activity, expression, phosphorylation; format: cell-based, human; settings: 5 μM and 20 μM pretreatment 2 hours, 33 mM high glucose 36 hours, dose-dependent
Method: as §4
(§7) Specifically, two types of vascular endothelial cells, namely, HUVEC and HPAEC cells, were pretreated with Saikosaponin C at concentrations of 5 μM and 20 μM for 2 hours, and then treated with high glucose at a concentration of 33 mM for 36 hours. Then, the nitric oxide (NO) concentration, endothelial nitric oxide synthase (eNOS) activity, protein expression, and phosphorylation level were analyzed.
(§8) Nitric oxide production was measured using a Nitric Oxide Assay Kit (FIG. 6A and FIG. 6B). Specifically, nitrate (NO3^−) and nitrite (NO2^−) levels were measured using nitrate reductase and Griess reagent. Nitric oxide synthase activity was measured using a NOS Activity Assay Kit (FIG. 6C and FIG. 6D) and the expression and phosphorylation (Ser114) of NOS were measured by Western blotting (FIG. 6E and FIG. 6F).

[8] = system: eNOS / nitric oxide in HUVEC; experiment: as above; format: cell-based, human; settings: 5 μM and 20 μM pretreatment 2 hours, 33 mM high glucose 36 hours, dose-dependent
Method: as §4, §7, §8

[9] = target: NLRP3 inflammasome (Homo sapiens, UniProt Q96P20); experiment: NLRP3 inflammasome activity: IL-1β secretion (Solid Phase Sandwich ELISA); settings: PMA-differentiated THP-1 macrophages; 20 μM pretreatment 2 hours, MSU 200 μg/ml 6 hours
Chain of NLRP3 inflammasome (Q96P20 whole entry): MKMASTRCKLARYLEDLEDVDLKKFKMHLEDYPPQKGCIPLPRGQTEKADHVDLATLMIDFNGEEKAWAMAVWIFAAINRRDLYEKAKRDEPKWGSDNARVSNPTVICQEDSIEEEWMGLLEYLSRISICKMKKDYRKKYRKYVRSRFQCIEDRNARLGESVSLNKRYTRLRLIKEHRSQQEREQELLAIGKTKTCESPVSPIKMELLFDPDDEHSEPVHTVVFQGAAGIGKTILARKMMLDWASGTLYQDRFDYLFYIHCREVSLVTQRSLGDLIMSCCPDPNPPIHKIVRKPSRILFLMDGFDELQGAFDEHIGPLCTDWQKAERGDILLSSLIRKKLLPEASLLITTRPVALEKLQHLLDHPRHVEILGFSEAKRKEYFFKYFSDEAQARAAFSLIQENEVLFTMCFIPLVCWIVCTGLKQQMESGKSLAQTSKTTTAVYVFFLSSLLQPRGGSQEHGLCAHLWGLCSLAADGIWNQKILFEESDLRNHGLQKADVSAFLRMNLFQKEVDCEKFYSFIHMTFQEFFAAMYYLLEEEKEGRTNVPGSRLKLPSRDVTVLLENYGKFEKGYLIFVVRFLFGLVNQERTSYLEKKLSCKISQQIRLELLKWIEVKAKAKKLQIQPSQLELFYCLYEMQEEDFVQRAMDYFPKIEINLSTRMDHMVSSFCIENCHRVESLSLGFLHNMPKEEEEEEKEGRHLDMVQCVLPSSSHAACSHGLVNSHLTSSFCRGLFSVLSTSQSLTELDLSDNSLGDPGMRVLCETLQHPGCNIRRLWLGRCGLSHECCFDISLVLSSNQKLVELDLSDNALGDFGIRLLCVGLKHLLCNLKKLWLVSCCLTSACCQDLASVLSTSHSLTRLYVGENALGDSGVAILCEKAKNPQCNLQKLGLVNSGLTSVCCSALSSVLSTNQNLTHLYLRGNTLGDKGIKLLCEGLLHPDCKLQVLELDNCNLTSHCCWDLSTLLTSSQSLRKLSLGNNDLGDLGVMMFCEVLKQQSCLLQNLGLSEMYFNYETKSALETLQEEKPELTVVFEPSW

CC1O[C@@H](O[C@@H]2C(CO[C@@H]3OC(CO)[C@@H](O)C(O)C3O)O[C@@H](O[C@H]3CC[C@]4(C)[C@H]5C=C[C@]67OC[C@@]8(CCC(C)(C)C[C@H]86)[C@@H](O)C[C@@]7(C)[C@]5(C)CC[C@H]4C3(C)C)C(O)C2O)C(O)C(O)[C@H]1O (stereo partly drawn) [Saikosaponin C]
high glucose-induced cell growth inhibition (MTT) [1]: significantly alleviated | high glucose-induced cell growth inhibition (MTT) [2]: significantly alleviated | high glucose-induced G1 phase arrest [3]: significantly abolished | high glucose-induced G1 phase arrest [4]: significantly abolished | high glucose-induced increase in the expression of p21, p27, and p16 proteins [5]: significantly abolished | high glucose-induced increase in the expression of p21, p27, and p16 proteins [6]: significantly abolished | high glucose-induced decrease in NOS-NO signaling (NO level, eNOS enzymatic activity, protein expression, phosphorylation) [7]: significantly alleviated | high glucose-induced decrease in NOS-NO signaling (NO level, eNOS enzymatic activity, protein expression, phosphorylation) [8]: significantly alleviated | IL-1β secretion [9]: inhibited
